Experimental data: patent US20230139171A1 (SITA Information Networking Computing UK Limited, priority 2019, published 2023)
pIC50: −log10 of the molar value.

Key:
Type in all cases: cell-based
human TLR7 = biological target: T1, human TLR7 (Homo sapiens, UniProt Q9NYK1); assay: TLR7 inhibition reporter assay (HEK-Blue cells, SEAP reporter, gardiquimod stimulation); conditions: HEK-Blue cells overexpressing human TLR7, SEAP reporter, gardiquimod 7.5 μM; read-out: TLR7 IC50
T1 construct: host or cells: HEK-Blue cells
T1 sequence (Q9NYK1 27-1049): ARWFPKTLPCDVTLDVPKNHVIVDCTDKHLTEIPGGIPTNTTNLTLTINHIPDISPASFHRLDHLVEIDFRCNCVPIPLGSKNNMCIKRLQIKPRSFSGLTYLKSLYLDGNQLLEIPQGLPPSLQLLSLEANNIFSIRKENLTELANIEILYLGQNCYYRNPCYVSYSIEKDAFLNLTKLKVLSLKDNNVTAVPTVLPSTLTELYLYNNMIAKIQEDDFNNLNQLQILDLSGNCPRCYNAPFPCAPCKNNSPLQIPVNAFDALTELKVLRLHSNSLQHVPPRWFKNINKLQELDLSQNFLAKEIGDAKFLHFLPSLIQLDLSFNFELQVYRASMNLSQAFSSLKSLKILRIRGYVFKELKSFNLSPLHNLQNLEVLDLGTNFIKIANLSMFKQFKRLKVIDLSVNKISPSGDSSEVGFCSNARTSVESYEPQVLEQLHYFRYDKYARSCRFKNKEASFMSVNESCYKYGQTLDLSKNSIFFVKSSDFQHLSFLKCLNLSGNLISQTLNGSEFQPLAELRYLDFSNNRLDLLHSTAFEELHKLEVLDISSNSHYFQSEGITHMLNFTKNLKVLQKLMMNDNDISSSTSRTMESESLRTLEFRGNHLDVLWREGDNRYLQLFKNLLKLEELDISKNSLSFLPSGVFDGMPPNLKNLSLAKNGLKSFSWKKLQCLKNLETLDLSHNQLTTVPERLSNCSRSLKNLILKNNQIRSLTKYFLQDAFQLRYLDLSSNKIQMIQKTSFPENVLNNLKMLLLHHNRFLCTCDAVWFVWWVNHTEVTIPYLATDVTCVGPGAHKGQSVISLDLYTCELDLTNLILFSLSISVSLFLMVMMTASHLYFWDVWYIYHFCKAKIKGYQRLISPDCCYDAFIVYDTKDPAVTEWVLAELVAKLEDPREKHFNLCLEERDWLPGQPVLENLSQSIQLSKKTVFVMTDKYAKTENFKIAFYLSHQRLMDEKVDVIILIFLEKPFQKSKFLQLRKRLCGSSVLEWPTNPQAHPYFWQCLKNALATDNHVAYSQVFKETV
Method in brief: (§1)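 HEK-Blue cells overexpressing human TLR7, TLR8 or TLR9 carry a SEAP reporter driven by NF-κB/AP-1 sites. Compounds (0.05 nM–50 μM) were preincubated 30 min at room temperature, then cells were stimulated with gardiquimod 7.5 μM (TLR7), R848 15.9 μM (TLR8) or ODN2006 5 nM (TLR9) for 22 h at 37 °C.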

human TLR8 = biological target: T2, human TLR8 (Homo sapiens, UniProt Q9NR97); assay: TLR8 inhibition reporter assay (HEK-Blue cells, SEAP reporter, R848 stimulation); conditions: HEK-Blue cells overexpressing human TLR8, SEAP reporter, R848 15.9 μM; read-out: TLR8 IC50
T2 construct: host or cells: HEK-Blue cells
T2 sequence (Q9NR97 27-1041): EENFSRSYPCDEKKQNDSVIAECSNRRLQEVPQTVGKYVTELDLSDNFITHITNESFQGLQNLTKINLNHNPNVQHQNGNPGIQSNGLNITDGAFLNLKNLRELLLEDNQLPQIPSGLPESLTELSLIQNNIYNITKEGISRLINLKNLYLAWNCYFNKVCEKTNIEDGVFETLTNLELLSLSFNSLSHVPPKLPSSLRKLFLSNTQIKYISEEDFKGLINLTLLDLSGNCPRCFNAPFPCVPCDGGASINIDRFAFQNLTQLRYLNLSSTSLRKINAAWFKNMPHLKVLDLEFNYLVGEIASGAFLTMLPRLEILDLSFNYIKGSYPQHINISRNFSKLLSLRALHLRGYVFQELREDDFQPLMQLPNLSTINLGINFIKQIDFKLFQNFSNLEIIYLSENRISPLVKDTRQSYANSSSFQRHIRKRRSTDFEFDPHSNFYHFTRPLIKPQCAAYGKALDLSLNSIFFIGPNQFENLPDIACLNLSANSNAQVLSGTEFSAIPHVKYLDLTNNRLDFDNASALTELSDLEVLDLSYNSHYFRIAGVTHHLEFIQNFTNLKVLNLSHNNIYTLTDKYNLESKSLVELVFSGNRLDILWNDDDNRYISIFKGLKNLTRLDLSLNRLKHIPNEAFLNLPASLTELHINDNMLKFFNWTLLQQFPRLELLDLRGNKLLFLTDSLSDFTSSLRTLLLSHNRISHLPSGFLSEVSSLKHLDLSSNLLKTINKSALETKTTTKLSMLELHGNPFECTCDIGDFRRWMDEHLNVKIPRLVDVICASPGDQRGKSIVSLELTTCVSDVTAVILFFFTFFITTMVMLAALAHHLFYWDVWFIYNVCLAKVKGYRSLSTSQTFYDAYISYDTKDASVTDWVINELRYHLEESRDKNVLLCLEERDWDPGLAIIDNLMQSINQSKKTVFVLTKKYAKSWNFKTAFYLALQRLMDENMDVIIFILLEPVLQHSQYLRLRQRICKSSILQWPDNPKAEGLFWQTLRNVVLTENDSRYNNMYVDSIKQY
Method in brief: as §1

human TLR9 = biological target: T3, human TLR9 (Homo sapiens, UniProt Q9NR96); assay: TLR9 inhibition reporter assay (HEK-Blue cells, SEAP reporter, ODN2006 stimulation); conditions: HEK-Blue cells overexpressing human TLR9, SEAP reporter, ODN2006 5 nM
T3 construct: host or cells: HEK-Blue cells
T3 sequence (Q9NR96 26-1032): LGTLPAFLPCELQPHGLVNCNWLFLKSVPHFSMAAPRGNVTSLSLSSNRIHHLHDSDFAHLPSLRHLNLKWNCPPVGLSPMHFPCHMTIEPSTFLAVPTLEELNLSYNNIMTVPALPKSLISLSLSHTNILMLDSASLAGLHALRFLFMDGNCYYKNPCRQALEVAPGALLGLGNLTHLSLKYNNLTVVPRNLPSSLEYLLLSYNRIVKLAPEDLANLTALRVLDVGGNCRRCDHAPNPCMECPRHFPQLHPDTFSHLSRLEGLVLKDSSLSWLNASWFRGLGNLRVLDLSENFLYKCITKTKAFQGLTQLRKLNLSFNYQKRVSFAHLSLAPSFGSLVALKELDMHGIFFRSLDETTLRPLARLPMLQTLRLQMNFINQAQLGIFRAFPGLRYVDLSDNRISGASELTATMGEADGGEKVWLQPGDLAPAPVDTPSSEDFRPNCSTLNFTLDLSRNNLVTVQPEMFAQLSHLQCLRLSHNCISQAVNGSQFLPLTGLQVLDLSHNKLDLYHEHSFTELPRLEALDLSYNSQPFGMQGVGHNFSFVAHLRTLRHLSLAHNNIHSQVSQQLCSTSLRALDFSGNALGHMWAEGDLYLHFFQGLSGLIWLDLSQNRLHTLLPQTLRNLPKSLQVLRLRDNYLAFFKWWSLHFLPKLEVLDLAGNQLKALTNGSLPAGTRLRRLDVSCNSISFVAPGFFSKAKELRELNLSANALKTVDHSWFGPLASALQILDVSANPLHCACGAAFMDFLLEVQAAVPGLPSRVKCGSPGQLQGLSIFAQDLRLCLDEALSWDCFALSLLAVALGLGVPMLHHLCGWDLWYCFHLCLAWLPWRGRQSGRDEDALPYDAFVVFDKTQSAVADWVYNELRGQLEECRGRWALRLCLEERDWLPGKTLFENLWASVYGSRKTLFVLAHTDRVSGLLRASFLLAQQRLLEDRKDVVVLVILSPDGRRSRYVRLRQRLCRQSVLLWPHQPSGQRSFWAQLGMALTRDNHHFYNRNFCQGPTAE
Method in brief: as §1

Structure (SMILES) | pIC50 (human TLR7) | pIC50 (human TLR8) | pIC50 (human TLR9)
COc1cc(-c2[nH]c3sc(C4CCC(N)CC4)nc3c2C(C)C)cn2ncnc12 (single isomer, unassigned) [Example 93, 4-(6-isopropyl-5-(8-methoxy-[1,2,4]triazolo[1,5-a]pyridin-6-yl)-4H-pyrrolo[3,2-d]thiazol-2-yl)cyclohexan-1-amine] | 8.72 | 7.81 | 4.92
CCC1(NC2CCC(c3nc4c(C(C)C)c(-c5cc(OC)c6ncnn6c5)[nH]c4s3)CC2)COC1 (single isomer, unassigned) [Example 94, 3-ethyl-N-(4-(6-isopropyl-5-(8-methoxy-[1,2,4]triazolo[1,5-a]pyridin-6-yl)-4H-pyrrolo[3,2-d]thiazol-2-yl)cyclohexyl)oxetan-3-amine] | 8.71 | 8.50 | 4.39
CCC1(NC2CCC(c3nc4c(C(C)C)c(-c5cc(OC)c6ncnn6c5)[nH]c4s3)CC2)COC1 (single isomer, unassigned) [Example 95, 3-ethyl-N-(4-(6-isopropyl-5-(8-methoxy-[1,2,4]triazolo[1,5-a]pyridin-6-yl)-4H-pyrrolo[3,2-d]thiazol-2-yl)cyclohexyl)oxetan-3-amine] | 7.93 | 7.62 | 4.36
COc1cc(-c2[nH]c3sc(C4CCC(N5CC6(C5)CS(=O)(=O)C6)CC4)nc3c2C(C)C)cn2ncnc12 (single isomer, unassigned) [Example 96, 6-(4-(6-isopropyl-5-(8-methoxy-[1,2,4]triazolo[1,5-a]pyridin-6-yl)-4H-pyrrolo[3,2-d]thiazol-2-yl)cyclohexyl)-2-thia-6-azaspiro[3.3]heptane 2,2-dioxide] | 8.82 | 9.01 | 5.11
COc1cc(-c2[nH]c3sc(C4CCC(N5CCCC5)CC4)nc3c2C(C)C)cn2ncnc12 (single isomer, unassigned) [Example 98, 6-isopropyl-5-(8-methoxy-[1,2,4]triazolo[1,5-a]pyridin-6-yl)-2-(4-(pyrrolidin-1-yl)cyclohexyl)-4H-pyrrolo[3,2-d]thiazole] | 9.92 | 8.86 | 5.53
COc1cc(-c2[nH]c3sc(C4CCC(N5CCCC5)CC4)nc3c2C(C)C)cn2ncnc12 (single isomer, unassigned) [Example 99, 6-isopropyl-5-(8-methoxy-[1,2,4]triazolo[1,5-a]pyridin-6-yl)-2-(4-(pyrrolidin-1-yl)cyclohexyl)-4H-pyrrolo[3,2-d]thiazole] | 8.92 | 7.44 | 5.44
COc1cc(-c2[nH]c3sc(C4CCC(N5CC[C@@H](NC(C)=O)C5)CC4)nc3c2C(C)C)cn2ncnc12 (single isomer, unassigned) [Example 100] | 7.10 | 6.94 | 5.19
COc1cc(-c2[nH]c3sc(C4CCC(N5CC[C@@H](NC(C)=O)C5)CC4)nc3c2C(C)C)cn2ncnc12 (single isomer, unassigned) [Example 101] | 8.43 | 7.64 | 5.32
COc1cc(-c2[nH]c3sc(C4CCC(N5CCCOCC5)CC4)nc3c2C(C)C)cn2ncnc12 (single isomer, unassigned) [Example 102, 4-(4-(6-isopropyl-5-(8-methoxy-[1,2,4]triazolo[1,5-a]pyridin-6-yl)-4H-pyrrolo[3,2-d]thiazol-2-yl)cyclohexyl)-1,4-oxazepane] | 9.43 | 7.85 | 5.41
COc1cc(-c2[nH]c3sc(C4CCC(N5CCCOCC5)CC4)nc3c2C(C)C)cn2ncnc12 (single isomer, unassigned) [Example 103, 4-(4-(6-isopropyl-5-(8-methoxy-[1,2,4]triazolo[1,5-a]pyridin-6-yl)-4H-pyrrolo[3,2-d]thiazol-2-yl)cyclohexyl)-1,4-oxazepane] | 7.32 | 8.46 | 5.44
COc1cc(-c2[nH]c3sc(C4CCC(N5[C@@H]6CC[C@H]5COC6)CC4)nc3c2C(C)C)cn2ncnc12 (single isomer, unassigned) [Example 104] | 8.70 | 8.55 | 5.25
COc1cc(-c2[nH]c3sc(C4CCC(N5[C@@H]6CC[C@H]5COC6)CC4)nc3c2C(C)C)cn2ncnc12 (single isomer, unassigned) [Example 105] | 8.86 | 7.36 | 5.66
COc1cc(-c2[nH]c3sc(C4CCC(NC5(C)CCC5)CC4)nc3c2C(C)C)cn2ncnc12 (single isomer, unassigned) [Example 108, 4-(6-isopropyl-5-(8-methoxy-[1,2,4]triazolo[1,5-a]pyridin-6-yl)-4H-pyrrolo[3,2-d]thiazol-2-yl)-N-(1-methylcyclobutyl) cyclohexan-1-amine] | 8.87 | 8.35 | 5.24
